# Measurements: US20250057791A1, “PROTECTION AGAINST ARTHROPOD PARASITES WITH PURINERGIC RECEPTOR (OPR) ANTAGONISTS” (priority 2021, published 2025)
# Residues, ends and D or L forms follow the SMILES beside them.
# Columns and labels:
# malaria mosquito P1 PR = test: Electrophysiological response to 200 pM adenosine with PR antagonist admixed; type: cell-based, Anopheles gambiae
# Protocol: (§1) The tip recording method was used to record action potentials (spikes) from sensory cells in sensilla on A. gambiae labellum lobes.
# Sensilla were exposed to test compounds and PR antagonists for ca. 2-4 s and spikes were counted in the first 2 s of recordings. Up to 4 test compounds were tested on a sensillum to evaluate potential agonists, each presented at 200 pM. To study responses as a function of dose for agonists ATP, adenosine, AMP, AMP-CPP and ATP+adenosine, up to 7 recordings were made at increasing doses of agonist from the same sensillum. Unless otherwise stated, recordings were made throughout from 4 to 16 sensilla from individual 4-6-day-old females per dose of agonist, antagonist and metal ion modulator. For example, a response curve established over 6 doses of an antagonist using 8 sensilla per dose involved recording from a sensillum of 48 separate mosquitoes. A given dose of a PR antagonist or metal ion modulator was only presented once to a sensillum. Two-second recordings were imported as ASCII files into DataView software for analysis of spike amplitude. […]
# Pairwise comparisons of A. gambiae electrophysiological (EP) responses to ATP and adenosine alone and combined with a given dose of PR antagonist, EP responses to ATP alone and combined with a given dose of a metal modulator, and EP responses to ATP prior to and after exposure of a sensillum to a given dose of a PR antagonist were made with a one-tailed Wilcoxon signed-rank test for data showing a non-normal distribution, with a paired Student's t-test for normally distributed data showing homogeneous variance and with a Welch's t-test for normally distributed data showing non-homogeneous variance. […] Percent feeding inhibition induced by PR antagonists in A. stephensi was calculated using Abbott's formula.
# A. gambiae = test: Membrane feeding assay, A. gambiae; type: in vivo, Anopheles gambiae; conditions: for effect on feeding on solution containing ATP, in words: 20 μM ATP, CPT at 10 μM
# Protocol: (§2) Experiments with A. gambiae and A. stephensi were made in a climate chamber at 28° C. and 80% RH during the last 6 hours of scotophase. As a sugar meal can interfere with the blood meal by reducing the number of females that feed, the sucrose solution supplied in rearing cages to mosquitoes employed for feeding experiments was reduced to 5%. […] The 5% sucrose solution was presented to mosquitoes from emergence on four 1 cm diam. cotton dental rolls (Hartmann A G, Neuhausen, Switzerland) inserted in 10 ml upturned glass vials placed in holes at each corner of the rearing cage ceiling. Cotton rolls were turned daily in vials and renewed every two days. Mosquitoes were not fed blood and were deprived of sucrose 17 to 20 hours before experiments. Thirty min before a feeding experiment, between 10-25, 6-day-old females that responded to activation by human breath were removed with a mouth aspirator from the rearing cage wall and placed in polystyrol cylinders with the floor cut out (10 cm dm×15 cm high; Semadeni, Ostermundigen, Switzerland) that served as feeding cages. Each cage was covered with mosquito netting at one end and a soft polyurethane lid at the other.
# (§3) Mosquitoes were fed for 30 min using a feeding system (Hemotek®, Hemotek Ltd, Blackburn, UK) consisting of 3.5 ml stainless steel reservoirs 37 mm in diameter covered with a 60-90 μm thick silicone-impregnated membrane (Kröber and Guerin, 2007 in “Feeding assays for hard ticks”, Trends in parasitology 23, 445-449; doi 10.1016/j.pt.2007.07.010). Feeding reservoirs reached a temperature of 37° C. within 10 min and were placed on the netting of feeding cages. Mosquitoes were activated using a 200 ms pulse of pure CO2 (volume 6.25 ml) from a pressurised cylinder (Carbagas, Switzerland) using a solenoid valve that caused the CO2 level in the feeding cage to rise to at least 1,500 ppm. Between 3 and 4 sets of 10 feeding cages held in a custom-built Ertacetal® POM frame were tested per day, depending of the number of female mosquitoes available from the colony.
# (§4) All compounds were tested in a mosquito feeding solution (FS) consisting of 25 mM dextrose, 25 mM NaCl buffered with 8.93 mM NaHCO3 adjusted to pH 7.4. Feeding responses of A. gambiae and A. stephensi to ATP as a function of dose were tested with between 7 to 10 feeding cages per dose. Each feeding experiment with an antagonist systematically included a treatment containing the FS as negative control along with a treatment containing the FS with 20 pM ATP added as positive control for A. gambiae and with 160 pM ATP added as positive control for A. stephensi. These positive and negative controls permitted to monitor any effect of experimental day on feeding responses as a function of dose for antagonists that were recorded over several days. […] Four to 10 cages each with 10 to 29 mosquitoes were tested per antagonist dose. […] The number of feeding cages used to test other compounds and their mixtures as feeding stimulants or as feeding inhibitors is listed on Table 6. The percentage of fed mosquitoes was estimated by visual inspection of abdominal distention that is indicative of engorgement.
# (§5) Pairwise comparisons of A. gambiae electrophysiological (EP) responses to ATP and adenosine alone and combined with a given dose of PR antagonist, EP responses to ATP alone and combined with a given dose of a metal modulator, and EP responses to ATP prior to and after exposure of a sensillum to a given dose of a PR antagonist were made with a one-tailed Wilcoxon signed-rank test for data showing a non-normal distribution, with a paired Student's t-test for normally distributed data showing homogeneous variance and with a Welch's t-test for normally distributed data showing non-homogeneous variance. […]
# [1] = tested on: A. gambiae mouthpart ATP-sensitive receptor; test: Electrophysiological response to 200 pM ATP with PR antagonist admixed; type: cell-based, Anopheles gambiae; conditions: for effect on EP response to ATP, in words: suramin at 1 nM; for ID95 in nM (±s.e.m.): increasing doses admixed to 200 pM ATP
# Protocol: as §1
# Sensilla were exposed to test compounds and PR antagonists for ca. 2-4 s and spikes were counted in the first 2 s of recordings. Up to 4 test compounds were tested on a sensillum to evaluate potential agonists, each presented at 200 pM. To study responses as a function of dose for agonists ATP, adenosine, AMP, AMP-CPP and ATP+adenosine, up to 7 recordings were made at increasing doses of agonist from the same sensillum. Unless otherwise stated, recordings were made throughout from 4 to 16 sensilla from individual 4-6-day-old females per dose of agonist, antagonist and metal ion modulator. For example, a response curve established over 6 doses of an antagonist using 8 sensilla per dose involved recording from a sensillum of 48 separate mosquitoes. A given dose of a PR antagonist or metal ion modulator was only presented once to a sensillum. Two-second recordings were imported as ASCII files into DataView software for analysis of spike amplitude. Differences in spike amplitude generated by stimulation of one 8v sensillum/female with 1 mM sucrose (n=294 spikes from 6 females) 200 pM adenosine (n=207 spikes from 7 females) and 200 pM ATP (n=192 spikes from 7 females) were compared by measuring the spike amplitude in mV between the highest point of depolarisation and the lowest point of hyperpolarisation.
# Pairwise comparisons of A. gambiae electrophysiological (EP) responses to ATP and adenosine alone and combined with a given dose of PR antagonist, EP responses to ATP alone and combined with a given dose of a metal modulator, and EP responses to ATP prior to and after exposure of a sensillum to a given dose of a PR antagonist were made with a one-tailed Wilcoxon signed-rank test for data showing a non-normal distribution, with a paired Student's t-test for normally distributed data showing homogeneous variance and with a Welch's t-test for normally distributed data showing non-homogeneous variance. Effects on feeding of adding ATP, AMP-CPP, adenosine, ATP+adenosine, AMP and ADP-βS, CPT with ATP or adenosine, TMP with ATP+adenosine, TMP+CPT with ATP+adenosine to the FS for A. gambiae, and of adding PR antagonists with ATP to the FS for A. stephensi were compared using one-tailed Mann-Whitney U-test or Welch's t-test, depending on data distribution; Holm's FWEC was applied where treatment comparisons involved the same positive control. Percent feeding inhibition induced by PR antagonists in A. stephensi was calculated using Abbott's formula.
# Dose-response models fitted to mosquito data were generated using the ‘drm’ command in the “drc” R package (version 2.5-12). Best fitting models (goodness of fit) and effects of dose of a compound were assessed using, respectively, ‘modelFit’ and ‘noEffect’ functions in the same R package. A 3-parameter logistic model (L3) was fitted to spike-counts recorded to increasing doses of adenosine, AMP, ATP and AMP-CPP. Spike numbers recorded in response to 200 pM ATP with increasing doses of PR antagonists added were analysed using a 4-parameter log-logistic model (LL.4) for A-317491 and spinorphin, using a 4-parameter Weibull model (W1.4) for PPADS, RB-2 and TMP, and using a 3-parameter log-logistic model (LL.3) for suramin. An L3 model was fitted to proportions of females feeding on increasing doses of ATP. Feeding rates on 20 μM ATP with increasing doses of a PR antagonist added were analysed using a 4-parameter log-logistic model (LL.4) with the median of the positive control (20 μM ATP) fixed as the upper asymptote. Response dynamics in 3-parameter models are related to the slope b, the upper asymptote, and inflexion point of the model e (the ED50 value), whereas 4 parameter models also include the lower asymptote parameter. […]
# A. stephensi = test: Membrane feeding assay, A. stephensi; type: in vivo, Anopheles stephensi
# Protocol: as §2, §3
# as §4, with “with 20 pM ATP added as positive control for A. gambiae and with 160 pM ATP added as positive control for A. stephensi.” left out
# as §5
smiles,measurement,setting,value
"Cn1c(=O)c2[nH]c(C3CCCC3)nc2n(C)c1=O [CPT, 8-cyclopentyl-1,3-dimethylxanthine]","effect on EP response to adenosine, in words","malaria mosquito P1 PR; 200 pM adenosine, suramin at 1 nM",inhibited
same,duration of inhibition of the response to adenosine,malaria mosquito P1 PR; adenosine presented again approximately 2 min after antagonist,at least 2 min
same,% Engorged mosquitoes,A. gambiae; 10 μM CPT + 20 μM ATP,65.4 ± 10.2%
same,% Engorged mosquitoes,A. gambiae; 10 μM CPT + 1 mM Adenosine,48.7 ± 7.0%
same,"effect on feeding on adenosine, in words","A. gambiae; 10 μM CPT, 1 mM adenosine in feeding solution",significantly inhibited
same,"effect on feeding on solution containing ATP, in words",A. gambiae,not
same,"effect on EP response to ATP, in words",[1]; 200 pM ATP,not
"Cc1nc(/N=N/c2ccc(S(=O)(=O)O)cc2S(=O)(=O)O)c(COP(=O)(O)O)c(C=O)c1O [PPADS, pyridoxal phosphate-6-azophenyl-2′,4′-disulfonic acid]","effect on feeding on solution containing ATP, in words",A. gambiae,inhibited feeding
same,"% fed mosquitoes (mean ± s.e.m.), ATP + antagonist",A. gambiae; antagonist 100 μM + 20 μM ATP,33.39%
same,"Mean no. of spikes per 2 s (±s.e.m.), ATP + antagonist",[1]; antagonist 50 nM + 200 pM ATP,8.13 spikes per 2 s
same,ID95 in nM (±s.e.m.),[1],12.66 nM
same,% Fed females (mean ± s.e.m.),"A. stephensi; 800 μM, feeding solution with 160 μM ATP",37.29 ± 3.75%
same,inhibition at 800 µM,"A. stephensi; Anopheles stephensi, 800 μM, Abbott's formula",48.9%
same,"effect on feeding on solution containing ATP, in words",A. stephensi; doses as in Table 8,inhibited feeding
"Nc1c(S(=O)(=O)O)cc(Nc2ccc(Nc3nc(Cl)nc(Nc4cccc(S(=O)(=O)O)c4)n3)c(S(=O)(=O)O)c2)c2c1C(=O)c1ccccc1C2=O [RB-2, 1-amino-4-[[4-[[4-chloro-6-[[3 (or 4)-sulfophenyl]amino]-1,3,5-triazin-2-yl]amino]-3-sulfophenyl]amino]-9,10-dihydro-9,10-dioxo-2-anthracenesulfonic acid]","effect on feeding on solution containing ATP, in words",A. gambiae,inhibited feeding
same,"% fed mosquitoes (mean ± s.e.m.), ATP + antagonist",A. gambiae; antagonist 0.1 μM + 20 μM ATP,32.88%
same,"persistent antagonism to ATP presented approximately 2 min later, in words",[1]; 200 pM ATP,not
same,"effect on EP response to ATP, in words",[1]; 200 pM ATP,inhibited
same,"Mean no. of spikes per 2 s (±s.e.m.), ATP + antagonist",[1]; antagonist 50 nM + 200 pM ATP,12.83 spikes per 2 s
same,ID95 in nM (±s.e.m.),[1],113.02 nM
"CC(C)C[C@H](N)C(=O)N[C@H](C(=O)N[C@H](C(=O)N[C@@H](Cc1ccc(O)cc1)C(=O)N1CCC[C@H]1C(=O)N[C@@H](Cc1c[nH]c2ccccc12)C(=O)N[C@H](C(=O)O)[C@@H](C)O)C(C)C)C(C)C [Spinorphin, L-leucyl-L-valyl-L-valyl-L-tyrosly-L-prolyl-L-tryptophyl-L-threonine] (H-LVVYPWT-OH)",% reduction in feeding,"A. gambiae; 100 nM, with 20 μM ATP","(100 nM, 27.31%)"
same,"effect on feeding on solution containing ATP, in words",A. gambiae,inhibited feeding
same,"% fed mosquitoes (mean ± s.e.m.), ATP + antagonist",A. gambiae; antagonist 100 nM + 20 μM ATP,46.62%
same,"effect on EP response to ATP, in words",[1]; 200 pM ATP,inhibited
same,"Mean no. of spikes per 2 s (±s.e.m.), ATP + antagonist",[1]; antagonist 1 nM + 200 pM ATP,9.8 spikes per 2 s
same,ID95 in nM (±s.e.m.),[1],0.43 nM
same,ID95 in nM (±s.e.m.),[1]; listed as spinorphin,ca. 0.4 nM
"Cn1c(=O)c2[nH]cnc2n(C)c1=O [Theophylline, 1,3-dimethylxanthine]","EP response, adenosine theophylline combination",malaria mosquito P1 PR; 1 μM theophylline + 200 pM adenosine,17.63±4.48 spikes/2s
